Measured values as given in PMC9249127, “Bio-Evaluation of ^99mTc-Labeled Homodimeric Chalcone Derivative as Amyloid-β-Targeting Probe” (Frontiers in Medicine, 2022).
Where two headings read alike, the source gives them in different places.

Key:
[1] = cited from earlier work
[2] = Cytotoxicity MTT assay; assay type: cell-based, Human; conditions: human, HEK 293 cells, read-out: cell viability
Protocol: (§1) In vitro cytotoxicity studies were performed for DT(Ch)2 in the concentration range of 0.5–50 μg/mL against HEK 293 cell lines seeded in 96-well plates. The experimental procedure followed was in accordance with the previously reported literature ([32]). […] Cell cultures were grown in DMEM (Dulbecco’s modified eagle medium, high glucose) and the culture was supplemented with 1% penicillin streptomycin and 10% FBS (fetal bovine serum). The cells were incubated with different compound concentrations in a 5% CO2 incubator at 37°C. Following the addition of MTT [3-(4,5-dimethylthiazol-2-yl)-2,5-diphenyl-2H-tetrazolium bromide] to each cell (100 μL), the systems were incubated for an additional 4 h. The cell viability was reported in accordance with the mitochondrial activity measured via absorbance at 570 nm. The experiments were performed in triplicates.

[3] = test system: HEK 293 cells; assay: Cytotoxicity MTT assay; assay type: cell-based, Human; conditions: 0.5–50 μg/mL, after 48 h of incubation
Protocol: as §1

[4] = Hemolysis assay; assay type: cell-based; conditions: human, red blood cells (washed RBC pellet resuspended in PBS), pH 7.4; RBCs, 0.125–2 mg/mL of ligand
Protocol: In accordance with the previous literature, heparinized blood from healthy volunteers was used for the hemolysis assay ([33]). Blood serum was separated by centrifugation and the obtained RBC pellet was washed with PBS (pH = 7.4) repeatedly. The pellet was finally resuspended in PBS and added in equal amounts to different vials. Similarly, varying concentrations of the ligand in equal volume were incubated with the RBC pellet in the ratio of 8:2 at 37°C. The Triton X-100 and phosphate buffer saline as positive and negative control, respectively, were also incubated with RBCs under similar conditions. A total of 100 μL of solvent was centrifuged and removed at each time point: 15 min, 1, 2, 4, and 24 h. The absorbance of the supernatant was measured at 541 nm wavelength in a 96-well plate by a Synergy 2 Multi-Mode Reader (BioTek Instruments, United States). The experiments were carried out in triplicates and the extent of hemolysis was calculated according to the following formula:
Hemolysisratio=(λ(test)-λ(negativecontrol))/(λ(positivecontrol)-λ(negativecontrol))×100%

[5] = target: Aβ aggregates; conditions: cited from earlier work

## O=C([O-])CN(CCN(CC(=O)[O-])CC(=O)[O-])CCN(CC(=O)[O-])CC(=O)[O-].[99Tc+4] [^99mTc–DTPA]
[1]; after 30 min, known value, no reference given
  brain uptake: 0.04%

## CN(C)c1ccc(/C=C/C(=O)c2ccc(OCCNC(=O)CN(CCN(CCN(CC(=O)O)CC(=O)NCCOc3ccc(C(=O)/C=C/c4ccc(N(C)C)cc4)cc3)CC(=O)O)CC(=O)O)cc2)cc1 [DT(Ch)2, 6,9-bis(carboxymethyl)-14-(4-[(E)-3-(4-(dimethylamino)phenyl)acryloyl]phenoxy)-3-(2-[(2-(4-[(E)-3-(4-(dimethylamino)phenyl)acryloyl]phenoxy)ethyl)amino]-2-oxoethyl)-11-oxo-3,6,9,12-tetraazatetradecanoic acid]
[2]; throughout the concentration range and observation time
  viability: ~85%
[2]; up to 24 h
  viability: 88 to 95%
[3]
  toxicity (MTT assay): < 17%
[4]
  hemolysis: < 5%

## CN(C)c1ccc(C=CC(=O)c2ccc(I)cc2)cc1 [^125I-DMIC]
[5]
  Kd: 4.2 nM

## CNc1ccc(-c2nc3ccc(O)cc3s2)cc1 [PiB, Pittsburgh compound B]
[1]
  ratio of brain2min/brain30min: 12
